Measurements taken from patent publication US20020086835A1, “Use of adenosine deaminase inhibitors to treat systemic inflammatory response syndrome” (priority 2000, published 2002).
“And” between values parts separate entries of the source, which are not always exact repeats. Equal values may be shown once. “Also recorded” adds a separate entry of the source.

Tests used:
TNF-α [1] = test: Serum TNF-α by ELISA in rats with chronic peritoneal sepsis (200 mg/kg cecal slurry ip); assay type: in vivo, rat; settings: septic rats; for Effect on serum TNF-α response to sepsis at 4 hours / Effect on serum TNF-α response to sepsis at 24 hours: versus saline-treated septic group; for Serum TNF-α at 4 hours after sepsis induction / Serum TNF-α at 24 hours after sepsis induction: treated at time of sepsis induction
Experimental: (§1) Studies were conducted to determine if manipulation of adenosine-mediated events would result in alterations in the TNF-α response in this model. At the time of sepsis induction, rats were treated in one of four ways. One group received only 0.9% normal saline as a vehicle control (No Rx; n=6). […] The third group received the adenosine deaminase inhibitor, erythro-9-(2-hydroxy-3-nonyl)adenine (EHNA; 1 μmole/kg+1 μmole/kg/hr; iv; n=3). A fourth group received the adenosine receptor antagonist 8-sulfophenyltheophylline (SPT; 400 μg/kg/8 hours; n=5).
(§2) Sepsis was induced under pentobarbital anesthesia (50 mg/kg) in each rat by intraperitoneal (ip) injection of 200 mg/kg rat cecal contents mixed as a slurry in 5% dextrose in water (D5W). […] Non-septic controls received an equivalent volume ip injection of D5W. Polyethylene catheters (Intramedic PE-50, Baxter) were inserted into the right internal jugular vein and right carotid artery. The jugular catheter was used for venous access (drug infusions; volume replacement, etc). The carotid catheter was used to obtain arterial blood samples, and to monitor arterial blood pressure and heart rate. The catheters were secured in their respective vessels, tunneled subcutaneously to exit in the interscapular region, and filled with heparinized saline (50 units/ml 0.9% normal saline). Incisions were closed in layers using 3-0 silk. Rats were allowed to recover from anesthetic and provided food and water ad libitum,
Serum and tissue tumor necrosis factor-α (TNF-α) concentrations were determined by enzyme-linked immunosorbant assay. Samples of serum, liver, and spleen were collected, rapidly weighed, and frozen in liquid nitrogen. On the day of assay, tissues are added to labeled tubes containing lysis buffer (volume=10 ml/gram wt. with 1:10 dilution) and kept on ice. The lysis buffer is 20 mM Tris (pH 7.4) containing […] phenylmethylsulfonylflouride (PMSF), […] leupeptin, 0.7 g/ml pepstatin, and 2.0 g/ml aprotinin to inhibit proteases. Samples were immediately homogenized using five 3 see bursts, washing grinding pistol (3×) between samples with phosphate buffered saline. Samples are then centrifuged for 20 min at 2200 RPM, 4° C. The supernatant was removed and used for TNF-α measurements. Briefly, each microplate well contained 50 μl of assay diluent. To each well, 50 μl of standard, control, or serum/homogenate supernatant sample were added and mixed on an orbital plate shaker. Plates were incubated at room temperature for 2 hours. Each well was then aspirated and washed with wash buffer 4 times. After final aspiration of wash buffer, 100 μl of rat TNF-α conjugate was added to each well. Wells were then covered and incubated for 2 hours at room temperature. At the end of the incubation, the aspiration/wash procedure was repeated 4 times, after which 100 μl of stabilized chromogen solution was added to each well. Next, plates were incubated for 45 minutes at room temperature in a dark area. After this final incubation period, 100 μl stopping solution was added to each well. Optical density of each well at […] was determined within 30 minutes using a Biotek Instruments EL312e microtiter plate reader. Concentrations of TNF-α were calculated from the standard curves.
At the time of sepsis induction, rats were treated in one of three ways. One group received only 0.9% normal saline as a vehicle control (VEH, n=6, where n is the number of rats). […] A third group received the adenosine receptor antagonist, 8-sulfophenyltheo-phylline (SPT; 400 μg/kg/8 h; n=5). Serum TNF-α (pg/ml) was determined at 4 and 24 hours after sepsis induction by ELISA.
Male SD rats (350-400 g) were made septic by IP introduction of a 200 mg/kg cecal slurry. […] TNF-α (pg/ml) was determined at 4 and 24 hours after sepsis induction by ELISA.

septic rats [2] = test: Survival of septic rats to day 3; assay type: in vivo, rat; settings: pentostatin 5 mg/kg/12 h; 8-SPT 400 μg/kg/8 h; 3 days post-sepsis
Experimental: as §1
as §2, with “The catheters were secured in their respective vessels, tunneled subcutaneously to exit in the interscapular region, and filled with heparinized saline (50 units/ml 0.9% normal saline). Incisions were closed in layers using 3-0 silk. Rats were allowed to recover from anesthetic and provided food and water ad libitum,” left out
(§3) At the time of sepsis induction, rats were treated in one of three ways. […] Serum TNF-α (pg/ml) was determined at 4 and 24 hours after sepsis induction by ELISA.

septic rats [3] = test: Blood pressure and heart rate in septic rats; settings: chronic treatment
Experimental: as §1
as §2, with “The catheters were secured in their respective vessels, tunneled subcutaneously to exit in the interscapular region, and filled with heparinized saline (50 units/ml 0.9% normal saline). Incisions were closed in layers using 3-0 silk. Rats were allowed to recover from anesthetic and provided food and water ad libitum,” left out
as §3

adenosine receptors = test: Regional vascular resistance by radiolabelled microspheres 24 hours after sepsis induction; assay type: in vivo, rat; settings: septic rats
Experimental: Systemic vascular responses were examined 24 hours after induction of sepsis in the presence or absence of adenosine receptor blockade in septic and non-septic rats using radiolabelled microspheres. For these experiments, the surgical procedure involving vascular access was modified to include a catheter in the left ventricle of the heart (via the carotid artery), and a catheter in the tail artery (Intramedic PE-50, Baxter) to permit reference blood withdrawal and blood pressure monitoring. Regional blood flows were determined using radiolabelled microspheres. The microspheres ([…] New England Nuclear, Boston), labeled with one of four isotopes (^46Sc, ^85Sr, ^95Nb, ^141Ce), were mixed in 0.9% normal saline with 0.01 % Tween-80 added to prevent aggregation. The microspheres were adjusted to provide a minimum of 400 microspheres per tissue sample, and represented approximately 100,000-250,000 spheres per injection. The specific Isotopes and their order of injection were randomized in each experiment. with each injection representing a volume of 0.4 ml/injectate. The microspheres were sonicated for a minimum of 30 minutes, and vortexed vigorously for at least 30 seconds prior to injection. A reference withdrawal sample was taken at 0.33 ml/min from the tail artery catheter using a mechanical pump (Harvard Model 22). The reference withdrawal was started 10 seconds prior to injecting the isotopes, and continued for 150 seconds. […] Wet weights were obtained and all tissues were counted in a gamma spectrophotometer (Beckman 9000). Gamma activity in the injectate vials was counted prior to the experiments. Actual injected amounts for each isotope were calculated by subtracting any isotope counts remaining in the vials, syringes, and catheters used for injection. Cardiac output (CO) was determined by dividing the total injectate counts for any given isotope by the counts in the reference sample and multiplying by the fixed withdrawal rate of the reference sample. The results for cardiac output are expressed as ml/min. Tissue counts attributed to each isotope were determined after subtracting the overlap of energy spectra from higher energy isotopes (Compton back-scatter). Individual tissue blood flows were determined by dividing the counts obtained in the tissue by the reference withdrawal counts and multiplying by the reference withdrawal rate. Tissue blood flows were then normalized to wet weight was calculated by adding the individual tissue blood flows of the stomach, small intestine, cecum, colon, pancreas, hepatic artery and spleen, and dividing by the liver weight. Regional tissue vascular resistances were calculated from regional blood flows and arterial blood pressure, according to the equation: […]

septic rats [4] = test: Capillary leakage: examination of peritoneal cavity and bowel of septic rats; assay type: in vivo, rat; settings: for Volume of fluid in the peritoneal cavity: untreated 2-3 ml
adenosine deaminase = biological target: T1, adenosine deaminase (Homo sapiens, UniProt P00813); settings: FIG. 10 legend; cited from earlier work
T1 sequence (P00813 1-363): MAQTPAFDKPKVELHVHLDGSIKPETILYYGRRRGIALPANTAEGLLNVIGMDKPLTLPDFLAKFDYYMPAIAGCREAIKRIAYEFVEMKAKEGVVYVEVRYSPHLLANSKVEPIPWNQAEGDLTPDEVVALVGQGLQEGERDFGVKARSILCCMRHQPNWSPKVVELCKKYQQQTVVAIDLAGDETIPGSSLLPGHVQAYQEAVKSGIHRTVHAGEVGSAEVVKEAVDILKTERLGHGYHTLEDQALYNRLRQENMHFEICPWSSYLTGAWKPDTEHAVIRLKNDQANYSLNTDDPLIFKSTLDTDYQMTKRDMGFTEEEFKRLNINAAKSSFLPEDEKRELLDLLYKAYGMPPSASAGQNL

[5] = test system: lipid peroxidation (TBARS); test: Thiobarbituric acid reactive substances (TBARS) in jejunum of septic rats; settings: 24 hours, versus saline (No Rx)
IL-10 = IL-10 in serum, liver and spleen in fluid-resuscitated SIRS; assay type: in vivo, rat; settings: pentostatin treatment
Experimental: (§4) SIRS was induced secondary to sepsis by ip introduction of […] cecal matter in 5 ml/kg D5W.
(§5) It is increasingly apparent that feedback between pro and anti-inflammatory processes is critically important to the clinical outcome from SIRS, as taught by Bone (Bone, 1996). The balance between complementary pro-and anti-inflammatory molecules is typified by TNF α and its soluble receptors, sTNF types I and II. The ability of ADA inhibition to restore balance to these complimentary molecules in the SIRS responses was tested with a more clinically relevant addition of fluid resuscitated sepsis. […] Further evidence of a complex, modulatory mode of action is indicated by IL-10 concentrations in the liver and spleen.

sTNFRII or p75 = test: Circulating soluble TNF receptor II in fluid-resuscitated sepsis-induced SIRS; assay type: in vivo, rat; settings: 24 hours after SIRS induction; 1 mg/kg pentostatin 2 hours after induction
Experimental: as §4, §5

TNF-α [6] = test: Serum TNF-α in fluid-resuscitated sepsis-induced SIRS; assay type: in vivo, rat; settings: 24 hours after SIRS induction, 1 mg/kg pentostatin 2 hours after induction
Experimental: as §4, §5
Serum and tissue tumor necrosis factor-α (TNF-α) concentrations were determined by enzyme-linked immunosorbant assay. Samples of serum, liver, and spleen were collected, rapidly weighed, and frozen in liquid nitrogen. On the day of assay, tissues are added to labeled tubes containing lysis buffer (volume=10 ml/gram wt. with 1:10 dilution) and kept on ice. […] Optical density of each well at […] was determined within 30 minutes using a Biotek Instruments EL312e microtiter plate reader. Concentrations of TNF-α were calculated from the standard curves.

IL-6 = test: Serum IL-6 in fluid-resuscitated sepsis-induced SIRS; assay type: in vivo, rat; settings: 24 hours after SIRS induction, 1 mg/kg pentostatin 2 hours after induction
Experimental: as §4, §5

SIRS rats = test: Survival up to 6 days after SIRS induction secondary to sepsis (FIG. 15); assay type: in vivo, rat; settings: 1 mg/kg
Experimental: All rats received 50 ml/kg 0.9% normal saline iv 2 hours after SIRS induction.
Inhibition of up to 100% can be maintained for no more than 3 consecutive days, after which ADA activity should be allowed to return to at least 50% of baseline values before another dose of the inhibitor can be given. […] One-two hours after administration of a starting dose of the inhibitor, adenosine deaminase activity can be measured in various bodily fluids, tissues, dialysates, or cells by spectrophotometric methods according to the method of Vielh and Castellazzi, or other appropriate measurement that provides information regarding ADA enzyme activity. Measurement of adenosine deaminase activity can also be used to monitor the return of ADA activity after therapeutic inhibition for the treatment or prevention of SIRS.

sTNFRI or p55 = test: Circulating soluble TNF receptor I in fluid-resuscitated sepsis-induced SIRS; assay type: in vivo, rat; settings: 24 hours after SIRS induction; 1 mg/kg pentostatin 2 hours after induction
Experimental: as §4, §5

TNF-α, IL-1 beta, IL-10 = test: Cytokine concentrations after ip E coli endotoxin (LPS), pentostatin dose response (FIG. 16); assay type: in vivo, rat; settings: response to 2 mg/kg LPS (endotoxin), 2 hours after ip injection
Excerpt: Lower doses than this were unable to consistently suppress TNF-α and IL-1 beta with concommittant stimulation of the anti-inflammatory cytokine, IL-10.

8-sulfophenyltheophylline [8-SPT]
Effect on serum TNF-α response to sepsis at 4 hours (TNF-α [1]): not at 4 hours
Effect on serum TNF-α response to sepsis at 24 hours (TNF-α [1]): amplified the response
Serum TNF-α at 4 hours after sepsis induction (TNF-α [1]): 1167 ± 428 pg/mL
Serum TNF-α at 24 hours after sepsis induction (TNF-α [1]): 2479 ± 875 pg/mL
Septic rats surviving to day 3 (septic rats [2]): 2 of the 5 and 1 of 5
Blood pressures or heart rates versus saline-treated septic rats (septic rats [3]): neither the adenosine deaminase inhibition nor the 8-SPT groups were blood pressures or heart rates significantly different; also recorded: neither the groups treated with pentostatin nor the groups treated with 8-SPT were blood pressures or heart rates significantly different
Brain (cerebral) vascular resistance (adenosine receptors): exception of changes in cerebral vascular resistance
Capillary leakage (septic rats [4]): exacerbation of capillary leakage
Small bowel hemorrhage (septic rats [4]): small bowel hemorrhaging was evident
Volume of fluid in the peritoneal cavity (septic rats [4]): 3 to 5 mL

OCC1OC(n2cnc3c2N=CNCC3O)C(F)C1O (centres unmarked) [2′-deoxy-2′-fluorocoformycin]
Enzyme-inhibitory activity against adenosine deaminase (adenosine deaminase): high enzyme-inhibitory activities

OC[C@H]1O[C@@H](n2cnc3c2NC=NC[C@H]3O)C[C@@H]1O [pentostatin, (R)-3-(2-deoxy-beta-D-erythropentofuranosyl)-3,6,7,8-tetrahydro-imidazo[4,5-d]-[1,3] diazepin-8-ol]
Jejunum tissue TBARS during sepsis [5]: diminution of tissue TBARS
Serum concentrations of IL-10 (IL-10; FIG. 14(A)): unaffected
IL-10 concentrations in the liver and spleen (IL-10; FIG. 14(B) and 14(C)): elevated
Circulating sTNFRII (p75) (sTNFRII or p75): 16525 ± 1226 pg/mL
Effect on serum TNF-α response to sepsis at 4 hours (TNF-α [1]): attenuation of this response
Effect on serum TNF-α response to sepsis at 24 hours (TNF-α [1]): attenuation of this response
Serum TNF-α at 4 hours after sepsis induction (TNF-α [1]): 592 ± 62 pg/mL
Serum TNF-α at 24 hours after sepsis induction (TNF-α [1]): 671 ± 175 pg/mL
Septic rats surviving to day 3 (septic rats [2]): 4 of the 5 and 4 of 5
Blood pressures or heart rates versus saline-treated septic rats (septic rats [3]): neither the groups treated with pentostatin nor the groups treated with 8-SPT were blood pressures or heart rates significantly different
Serum TNF-α (TNF-α [6]): 20.3 ± 14.8 pg/mL
Serum IL-6 (IL-6): 5525 ± 1435 pg/mL
Capillary leakage (septic rats [4]): amelioration of capillary leakage
Small bowel hemorrhage (septic rats [4]): little to no evidence of small bowel hemorrhage
Volume of fluid in the peritoneal cavity (septic rats [4]): 0 to 1 mL
Mortality in SIRS model (SIRS rats): effective in reducing mortality
Circulating sTNFRI (p55) (sTNFRI or p55): 4624 ± 404 pg/mL
Dose with maximal effect on modulating cytokine concentrations (TNF-α, IL-1 beta, IL-10): 1 mg/kg
